Columns and labels:
PTHR2 = target: T1, PTHR2 (Homo sapiens, UniProt P49190); test: cAMP induction in HEK293 cells stably expressing human PTHR2; assay type: cell-based; conditions: maximal cAMP response, normalized
T1 construct: expressed in transfected cells
Experimental: (§1) Measurement of cAMP response. These assays were performed as previously described^27. […] Confluent monolayers of cells were pre-incubated with CO2 independent medium containing D-luciferin (0.5 mM) at 37° C. until a stable baseline level of luminescence was established (20 min). Varying concentrations of ligands were then added, and the time course of luminescence response was recorded using BioTek plate reader.
(§2) Data calculations. Data were processed using Microsoft Excel and GraphPad Prism 6. Data from cAMP dose-response assays were analyzed using a sigmoidal dose-response model with variable slope. Data sets were statistically compared by using Student's t test (two-tailed) assuming unequal variances for the two sets.

rat PTHR1 = target: T2, rat PTHR1 (Rattus norvegicus, UniProt P25961); test: cAMP induction in HEK293 cells stably expressing rat PTHR1; assay type: cell-based; conditions: maximal cAMP response, normalized
T2 construct: expressed in transfected cells
T2 sequence (P25961 27-591): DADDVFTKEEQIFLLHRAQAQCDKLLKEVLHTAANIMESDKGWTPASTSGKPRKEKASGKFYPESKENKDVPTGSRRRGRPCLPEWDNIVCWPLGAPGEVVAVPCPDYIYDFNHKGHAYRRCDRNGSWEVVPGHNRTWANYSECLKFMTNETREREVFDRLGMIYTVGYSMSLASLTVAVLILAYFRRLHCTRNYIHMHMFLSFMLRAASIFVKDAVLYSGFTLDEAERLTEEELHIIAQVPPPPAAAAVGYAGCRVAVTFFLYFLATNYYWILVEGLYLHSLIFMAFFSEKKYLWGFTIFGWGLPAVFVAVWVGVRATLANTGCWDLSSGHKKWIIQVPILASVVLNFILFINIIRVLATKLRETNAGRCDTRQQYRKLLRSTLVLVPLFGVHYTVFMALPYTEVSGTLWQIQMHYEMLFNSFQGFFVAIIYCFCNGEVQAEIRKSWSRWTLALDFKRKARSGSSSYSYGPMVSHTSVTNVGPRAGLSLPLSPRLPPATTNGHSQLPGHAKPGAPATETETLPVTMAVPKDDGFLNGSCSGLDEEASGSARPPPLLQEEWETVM
Experimental: as §1, §2

human PTHR1 = target: T3, human PTHR1 (Homo sapiens, UniProt Q03431); test: cAMP induction (cAMP-responsive luciferase) in HEK293 cells stably expressing human PTHR1; assay type: cell-based; conditions: maximal cAMP response, normalized
T3 construct: expressed in transfected cells
T3 sequence (Q03431 27-593): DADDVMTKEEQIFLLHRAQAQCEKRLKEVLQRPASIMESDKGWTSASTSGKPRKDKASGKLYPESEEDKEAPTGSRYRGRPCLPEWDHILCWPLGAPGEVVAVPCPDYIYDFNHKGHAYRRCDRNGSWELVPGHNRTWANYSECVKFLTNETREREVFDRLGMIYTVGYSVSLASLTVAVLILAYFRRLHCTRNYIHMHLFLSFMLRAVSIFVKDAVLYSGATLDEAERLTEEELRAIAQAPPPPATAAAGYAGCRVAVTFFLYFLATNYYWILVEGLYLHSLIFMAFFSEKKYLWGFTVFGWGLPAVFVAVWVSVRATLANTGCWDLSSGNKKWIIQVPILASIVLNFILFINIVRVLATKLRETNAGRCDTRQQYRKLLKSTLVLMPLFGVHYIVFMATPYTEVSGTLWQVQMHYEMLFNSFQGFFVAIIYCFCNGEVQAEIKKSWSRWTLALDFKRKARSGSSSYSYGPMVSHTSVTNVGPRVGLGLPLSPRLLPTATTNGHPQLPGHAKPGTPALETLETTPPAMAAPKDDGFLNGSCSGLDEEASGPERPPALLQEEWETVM
Experimental: as §1, §2

Mice (CD1 female) = test: Calcemic response: blood ionized calcium in mice after subcutaneous injection; assay type: in vivo, mouse; conditions: 35 nmol/kg subcutaneous
Experimental: Animal experiments and measurement of in vivo response. Mice (CD1 female, age 11 weeks) were treated in accordance with the ethical guidelines adopted by Massachusetts General Hospital. […] Peptides and conjugates were administered at doses that allowed for differentiation between compounds with differing levels of in vivo activity^27. Statistical analyses were performed assuming Gaussian distribution of data. Mice (n=4 per compound) were injected subcutaneously with vehicle (10 mM citric acid/150 mM NaCl/0.05% Tween-80, pH 5.0) or vehicle containing PTH or conjugate at a dose of 35 nmol/kg body weight. […] Blood was withdrawn just before injection (t=0) or at times thereafter. Tail vein blood was collected and immediately analyzed. Blood Ca^2+ concentration was measured with a Siemens RapidLab 348 Ca2+/pH analyzer.

PTHR1GFP = test: cAMP induction in HEK293 cells stably expressing PTHR1GFP; assay type: cell-based, human
Experimental: The GFP-PTHR1 fusion was stably expressed in cells that respond to receptor engagement by activation of a cAMP-sensitive version of luciferase. Exposure of these transfectants to PTH(1-11) yielded the expected dose-response curve with half maximal stimulation at ˜200 nM.
Measurement of cAMP response. These assays were performed as previously described^27. Briefly, HEK-293-derived cell lines that stably express the Glosensor cAMP reporter (Promega Corp.)^30 and PTHR1, a PTHR1 variant, or PTHR2 were seeded into white sided 96 well plates (50,000 cells/well) and grown to confluency. Confluent monolayers of cells were pre-incubated with CO2 independent medium containing D-luciferin (0.5 mM) at 37° C. until a stable baseline level of luminescence was established (20 min). Varying concentrations of ligands were then added, and the time course of luminescence response was recorded using BioTek plate reader. The maximal luminescence response (observed 12-16 min after ligand addition) was used to construct dose-response data sets (Table 4, FIGS. 22A to 22E).
as §2
While there is no structural information for any VHH bound to PTHR1, a mode of interaction was envisioned between the receptor and VHH-PTH conjugates like that depicted in FIG. 12—Panel c. The portion of PTHR1 encoded by exon 2 is not resolved in structural studies (FIG. 12—Panel d)^13, 14, 17, is not important for ligand binding^18, and in past work has been targeted as a site for receptor modification^18, 19. A construct was generated that encodes a PTHR1 variant in which a 14-residue fragment from exon 2 was replaced with a 14-mer epitope tag from the intracellular protein UBC6e (PTHR16E, FIG. 12—Panel d)^20. A receptor construct in which a pH-sensitive green fluorescent protein variant (GFP) was inserted into the portion of the receptor encoded by exon 2 (PTHR1GFP in FIGS. 17A to 17C)^19. Another version of PTHR1 in which yellow fluorescent protein (YFP) replaces the entire extracellular domain (PTHR1YFPΔECD, FIG. 12—Panel e)^21, was also used.

T1 sequence (P49190 25-550): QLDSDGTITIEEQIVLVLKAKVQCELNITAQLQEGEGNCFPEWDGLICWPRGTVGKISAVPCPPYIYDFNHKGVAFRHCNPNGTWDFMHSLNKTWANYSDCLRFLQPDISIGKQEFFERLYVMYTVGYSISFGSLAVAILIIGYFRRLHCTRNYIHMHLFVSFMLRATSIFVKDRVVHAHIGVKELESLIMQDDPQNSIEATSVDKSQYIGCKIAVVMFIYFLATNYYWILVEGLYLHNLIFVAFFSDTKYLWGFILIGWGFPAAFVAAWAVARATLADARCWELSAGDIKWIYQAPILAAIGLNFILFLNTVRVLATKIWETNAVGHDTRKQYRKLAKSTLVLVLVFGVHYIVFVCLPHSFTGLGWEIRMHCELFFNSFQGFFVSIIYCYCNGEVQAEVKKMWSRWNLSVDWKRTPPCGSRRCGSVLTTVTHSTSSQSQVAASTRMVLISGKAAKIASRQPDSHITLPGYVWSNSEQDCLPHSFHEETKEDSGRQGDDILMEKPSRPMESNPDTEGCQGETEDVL

CC[C@H](C)[C@H](NC(=O)[C@H](CCC(=O)O)NC(=O)[C@H](CO)NC(=O)[C@@H](NC(=O)[C@@H](N)CO)C(C)C)C(=O)N[C@@H](CCC(N)=O)C(=O)N[C@@H](CC(C)C)C(=O)N[C@@H](CCSC)C(=O)N[C@@H](Cc1cnc[nH]1)C(=O)N[C@@H](CC(N)=O)C(=O)N[C@@H](CC(C)C)C(=O)NCC(=O)N[C@@H](CCCCN)C(=O)N[C@@H](Cc1cnc[nH]1)C(=O)N[C@@H](CC(C)C)C(=O)N[C@@H](CC(N)=O)C(=O)N[C@@H](CO)C(=O)N[C@@H](CCSC)C(=O)N[C@@H](CCC(=O)O)C(=O)N[C@@H](CCCN=C(N)N)C(=O)N[C@H](C(=O)N[C@@H](CCC(=O)O)C(=O)N[C@@H](Cc1c[nH]c2ccccc12)C(=O)N[C@@H](CC(C)C)C(=O)N[C@@H](CCCN=C(N)N)C(=O)N[C@@H](CCCCN)C(=O)N[C@@H](CCCCN)C(=O)N[C@@H](CC(C)C)C(=O)N[C@@H](CCC(N)=O)C(=O)N[C@@H](CC(=O)O)C(=O)N[C@H](C(=O)N[C@@H](Cc1cnc[nH]1)C(=O)N[C@@H](CC(N)=O)C(=O)N[C@@H](Cc1ccccc1)C(=O)O)C(C)C)C(C)C [PTH(1-34)]
Max (normalized ± SD), hPTHR2 (PTHR2): 1 ± 0 | Max (normalized ± SD), rPTHR1 (rat PTHR1): 1.00 ± 0.00 | Max (normalized ± SD), hPTHR1 (human PTHR1): 1.00 ± 0.00 | time of peak blood ionized calcium after injection (Mice (CD1 female)): 1 to 2 h | blood ionized calcium response (Mice (CD1 female); n=4): strong increase | Max (normalized ± SD), hPTHR1GFP (PTHR1GFP; maximal cAMP response, normalized): 1.00 ± 0.00 | EC50 (PTHR1GFP; mean ± SD, Inactive = response <5% of maximal, read-out: EC50, cAMP induction, hPTHR1GFP): 0.4 ± 0.8 nM

Source: US11878063B2, “Engineered ligands and uses thereof” (Children's Medical Center Corporation, priority 2019, dated 2024)
